Experimental findings from article PMC2757182 (The Journal of Biological Chemistry, 2009) are described below.

Structures are written as SMILES. Positions count from the first letter of the chain named.

Assay in all cases: tryptophan fluorescence quenching
Holding throughout (assay type): binding

The target in experiment [1] is T1, GUN4 Δ1–69 (GENOMES UNCOUPLED 4) (Arabidopsis thaliana, UniProt Q9LX31).
T1 sequence (Q9LX31 70-265): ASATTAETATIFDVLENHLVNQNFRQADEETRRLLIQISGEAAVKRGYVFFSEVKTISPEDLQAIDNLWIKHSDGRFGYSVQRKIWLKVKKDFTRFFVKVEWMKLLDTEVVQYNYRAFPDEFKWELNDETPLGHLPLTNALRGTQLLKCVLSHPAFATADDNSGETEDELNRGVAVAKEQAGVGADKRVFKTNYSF

Experiment [2] deals with T2, GUN4 Δ1–69 (GENOMES UNCOUPLED 4) (Arabidopsis thaliana, UniProt Q9LX31, R211A).
T2 sequence (Q9LX31 70-265 R211A): T1 sequence (Q9LX31 70-265) with R142A

The target of experiment [3] is T3, GUN4 Δ1–69 (GENOMES UNCOUPLED 4) (Arabidopsis thaliana, UniProt Q9LX31, F191A).
T3 sequence (Q9LX31 70-265 F191A): T1 sequence (Q9LX31 70-265) with F122A

In experiment [4] the target is T4, GUN4 Δ1–69 (GENOMES UNCOUPLED 4) (Arabidopsis thaliana, UniProt Q9LX31, V123A).
T4 sequence (Q9LX31 70-265 V123A): T1 sequence (Q9LX31 70-265) with V54A

Usually Kd stands for the free concentration of one partner at which half of the binding sites on the other are occupied at equilibrium, for simple one-to-one binding. Read a low Kd as tighter binding.

In experiment [1], `CC1=C(CCC(=O)O)c2cc3nc(cc4[nH]c(cc5[nH]c(cc1n2)c(C)c5CCC(=O)O)c(CCC(=O)O)c4C)C(CCC(=O)O)=C3C` [Coproporphyrin III] registered a Kd of 15 ± 0.82 µM.
Consider `CC1=C(CCC(=O)O)c2cc3nc(cc4[nH]c(cc4C)cc4[nH]c(cc1n2)cc4C)C(C)=C3CCC(=O)O` [DPIX], for which the Kd was 14 ± 0.83 µM in experiment [2], 12 ± 0.77 µM in experiment [3], 9.6 ± 0.44 µM in experiment [4] and 6.4 ± 0.21 µM in experiment [1].
The molecule `C=CC1=C(C)C2=Cc3c(C=C)c(C)c4[n]3[Fe]([Cl])[n]3c(c(C)c(CCC(=O)O)c3=CC3=NC(=C4)C(C)=C3CCC(=O)O)=CC1=N2` [Hemin] registered an equilibrium dissociation constant (Kd) in experiment [1] of 8.1 ± 0.75 µM.
Molecule `C=CC1=C(C)c2cc3[nH]c(cc4nc(cc5[nH]c(cc1n2)c(C)c5CCC(=O)O)C(CCC(=O)O)=C4C)c(C)c3C=C` [PPIX] showed a Kd in experiment [1] of 11 ± 0.5 µM.
Regarding `C=Cc1c(C)c2cc3nc(c4c5[nH]c(cc6nc(cc1[nH]2)C(C)=C6CC)c(C)c5C(=O)[C@@H]4C(=O)OC)[C@@H](CCC(=O)O)[C@@H]3C` [Pheophorbide a], binding in experiment [1] was characterised by a dissociation constant (Kd) of 3.8 ± 0.33 µM.
Same read-out and setting: to `O=C(O)CCC1=C(CC(=O)O)c2cc3[nH]c(cc4nc(cc5[nH]c(cc1n2)c(CC(=O)O)c5CCC(=O)O)C(CCC(=O)O)=C4CC(=O)O)c(CC(=O)O)c3CCC(=O)O` [Uroporphyrin III] belongs 10 ± 0.57 µM.
